According to ChEMBL document CHEMBL1138280, “Synthesis and characterization of 8-ethynyl-1,3-dihydro-benzo[b][1,4]diazepin-2-one derivatives: new potent non-competitive metabotropic glutamate receptor 2/3 antagonists. Part 1” (Bioorg Med Chem Lett, 2007):
Activity calls are given as the source filed them. The rule behind the calls is not given here.

Columns and labels:
[1] = biological target: T1, Metabotropic glutamate receptor 2 (Rattus norvegicus, UniProt P31421); assay: Displacement of [3H]LY354740 from rat mGluR2 expressed in CHO cells; assay type: cell-based
[2] = biological target: T1, Metabotropic glutamate receptor 2; assay: Antagonist activity at rat mGlu2 expressed in CHO cells assessed as inhibition of (1S,3R)-ACPD-stimulated GTPgammaS binding; assay type: functional, cell-based
Homo sapiens [3] = organism: Homo sapiens; assay: Binding affinity to NMDA
Rattus norvegicus = organism: Rattus norvegicus; assay: Displacement of [3H]L-AP4 from mGlu8a receptor
[4] = biological target: Metabotropic glutamate receptor 2 (Rattus norvegicus) (UniProt P31421); assay: Displacement of [3H]LY354740 from rat mGluR2 expressed in CHO cells assessed as residual binding; assay type: cell-based
Homo sapiens [5] = organism: Homo sapiens; assay: Binding affinity to GABAA
[6] = biological target: Metabotropic glutamate receptor 3 (Rattus norvegicus) (UniProt P31422); assay: Antagonist activity at rat mGluR3 expressed in CHO cells co expressing human Kir3.2c assessed as glutamate-induced inward potassium current; assay type: functional, cell-based
[7] = biological target: Metabotropic glutamate receptor 1 (Rattus norvegicus) (UniProt P23385); assay: Inhibition of glutamate-stimulated rat mGlu1a by calcium mobilization assay at 30 uM; assay type: functional
[8] = biological target: Metabotropic glutamate receptor 5 (Rattus norvegicus) (UniProt P31424); assay: Inhibition of glutamate-stimulated rat mGlu5a by calcium mobilization assay at 30 uM; assay type: functional
[9] = biological target: Metabotropic glutamate receptor 2 (Rattus norvegicus) (UniProt P31421); assay: Antagonist activity at rat mGluR2 expressed in CHO cells co expressing human Kir3.1 assessed as glutamate-induced inward potassium current; assay type: functional, cell-based

T1 sequence (P31421 whole entry): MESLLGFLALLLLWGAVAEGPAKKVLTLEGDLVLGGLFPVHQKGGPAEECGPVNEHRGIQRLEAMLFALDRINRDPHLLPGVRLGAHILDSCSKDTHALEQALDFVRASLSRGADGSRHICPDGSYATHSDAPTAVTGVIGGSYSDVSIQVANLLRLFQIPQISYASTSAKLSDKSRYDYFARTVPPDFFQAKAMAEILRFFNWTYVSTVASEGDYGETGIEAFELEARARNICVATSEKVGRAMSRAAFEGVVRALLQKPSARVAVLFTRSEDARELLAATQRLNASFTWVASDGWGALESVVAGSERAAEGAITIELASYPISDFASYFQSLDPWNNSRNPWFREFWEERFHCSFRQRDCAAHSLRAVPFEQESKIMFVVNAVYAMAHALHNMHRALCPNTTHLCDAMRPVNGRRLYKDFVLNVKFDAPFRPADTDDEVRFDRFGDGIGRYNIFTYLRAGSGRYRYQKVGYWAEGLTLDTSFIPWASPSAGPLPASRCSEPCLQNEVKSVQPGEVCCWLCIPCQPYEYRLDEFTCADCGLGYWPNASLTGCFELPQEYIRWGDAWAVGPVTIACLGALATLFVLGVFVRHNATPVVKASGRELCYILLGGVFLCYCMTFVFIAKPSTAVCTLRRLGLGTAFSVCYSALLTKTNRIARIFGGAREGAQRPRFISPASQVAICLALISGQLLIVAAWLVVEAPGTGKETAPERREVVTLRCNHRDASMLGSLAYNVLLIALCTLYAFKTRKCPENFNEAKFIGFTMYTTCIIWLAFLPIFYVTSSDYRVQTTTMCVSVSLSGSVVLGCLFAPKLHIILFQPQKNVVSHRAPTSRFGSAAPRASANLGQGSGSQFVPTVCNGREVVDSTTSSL
Metabotropic glutamate receptor 2 (Rattus norvegicus), sequence (P31421 19-872 limits assumed): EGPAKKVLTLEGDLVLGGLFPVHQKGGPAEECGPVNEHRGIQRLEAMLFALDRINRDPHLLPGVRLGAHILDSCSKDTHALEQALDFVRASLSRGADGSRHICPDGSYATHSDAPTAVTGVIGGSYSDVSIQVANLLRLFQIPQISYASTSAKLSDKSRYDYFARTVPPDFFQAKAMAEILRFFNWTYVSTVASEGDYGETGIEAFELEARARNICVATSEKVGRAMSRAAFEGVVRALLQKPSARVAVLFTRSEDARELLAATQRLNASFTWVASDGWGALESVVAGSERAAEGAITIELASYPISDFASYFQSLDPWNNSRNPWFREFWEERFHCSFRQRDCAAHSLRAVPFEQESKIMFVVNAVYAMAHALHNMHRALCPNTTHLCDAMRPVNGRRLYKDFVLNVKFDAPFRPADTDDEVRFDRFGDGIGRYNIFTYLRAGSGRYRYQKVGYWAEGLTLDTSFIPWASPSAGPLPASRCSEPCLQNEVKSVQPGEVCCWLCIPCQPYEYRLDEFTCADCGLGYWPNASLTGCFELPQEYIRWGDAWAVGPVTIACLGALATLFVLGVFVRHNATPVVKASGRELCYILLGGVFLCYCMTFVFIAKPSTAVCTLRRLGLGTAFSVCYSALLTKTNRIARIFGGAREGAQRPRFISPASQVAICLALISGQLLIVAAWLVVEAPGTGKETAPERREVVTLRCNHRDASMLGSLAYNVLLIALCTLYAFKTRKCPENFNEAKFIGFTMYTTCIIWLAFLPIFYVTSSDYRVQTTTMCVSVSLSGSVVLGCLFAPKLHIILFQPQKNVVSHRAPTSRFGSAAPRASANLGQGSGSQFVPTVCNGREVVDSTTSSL
Metabotropic glutamate receptor 3 (Rattus norvegicus), sequence (P31422 23-879 limits assumed): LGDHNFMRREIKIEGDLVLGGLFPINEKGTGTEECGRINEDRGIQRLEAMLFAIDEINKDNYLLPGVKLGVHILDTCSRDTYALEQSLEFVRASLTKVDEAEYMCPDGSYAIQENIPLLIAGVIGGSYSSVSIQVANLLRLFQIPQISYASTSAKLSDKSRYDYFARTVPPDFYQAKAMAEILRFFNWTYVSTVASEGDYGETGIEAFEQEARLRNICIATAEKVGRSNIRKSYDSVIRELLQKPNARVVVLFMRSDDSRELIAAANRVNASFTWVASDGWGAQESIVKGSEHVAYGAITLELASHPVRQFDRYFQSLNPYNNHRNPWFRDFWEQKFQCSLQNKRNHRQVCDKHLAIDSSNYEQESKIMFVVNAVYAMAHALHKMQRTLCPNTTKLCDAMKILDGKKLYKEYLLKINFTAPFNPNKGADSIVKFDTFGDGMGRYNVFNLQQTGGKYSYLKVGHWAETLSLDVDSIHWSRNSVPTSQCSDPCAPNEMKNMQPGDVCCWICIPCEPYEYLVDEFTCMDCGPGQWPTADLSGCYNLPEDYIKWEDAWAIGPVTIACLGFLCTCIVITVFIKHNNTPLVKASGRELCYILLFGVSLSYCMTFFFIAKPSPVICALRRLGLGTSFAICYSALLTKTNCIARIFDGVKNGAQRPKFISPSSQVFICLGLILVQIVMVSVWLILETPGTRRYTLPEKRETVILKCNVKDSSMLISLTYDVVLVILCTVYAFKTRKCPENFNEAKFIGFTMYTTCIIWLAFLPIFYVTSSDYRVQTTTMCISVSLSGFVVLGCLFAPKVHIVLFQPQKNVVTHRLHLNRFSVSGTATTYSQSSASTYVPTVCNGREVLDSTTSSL
Metabotropic glutamate receptor 5 (Rattus norvegicus), sequence (P31424 21-1203 limits assumed): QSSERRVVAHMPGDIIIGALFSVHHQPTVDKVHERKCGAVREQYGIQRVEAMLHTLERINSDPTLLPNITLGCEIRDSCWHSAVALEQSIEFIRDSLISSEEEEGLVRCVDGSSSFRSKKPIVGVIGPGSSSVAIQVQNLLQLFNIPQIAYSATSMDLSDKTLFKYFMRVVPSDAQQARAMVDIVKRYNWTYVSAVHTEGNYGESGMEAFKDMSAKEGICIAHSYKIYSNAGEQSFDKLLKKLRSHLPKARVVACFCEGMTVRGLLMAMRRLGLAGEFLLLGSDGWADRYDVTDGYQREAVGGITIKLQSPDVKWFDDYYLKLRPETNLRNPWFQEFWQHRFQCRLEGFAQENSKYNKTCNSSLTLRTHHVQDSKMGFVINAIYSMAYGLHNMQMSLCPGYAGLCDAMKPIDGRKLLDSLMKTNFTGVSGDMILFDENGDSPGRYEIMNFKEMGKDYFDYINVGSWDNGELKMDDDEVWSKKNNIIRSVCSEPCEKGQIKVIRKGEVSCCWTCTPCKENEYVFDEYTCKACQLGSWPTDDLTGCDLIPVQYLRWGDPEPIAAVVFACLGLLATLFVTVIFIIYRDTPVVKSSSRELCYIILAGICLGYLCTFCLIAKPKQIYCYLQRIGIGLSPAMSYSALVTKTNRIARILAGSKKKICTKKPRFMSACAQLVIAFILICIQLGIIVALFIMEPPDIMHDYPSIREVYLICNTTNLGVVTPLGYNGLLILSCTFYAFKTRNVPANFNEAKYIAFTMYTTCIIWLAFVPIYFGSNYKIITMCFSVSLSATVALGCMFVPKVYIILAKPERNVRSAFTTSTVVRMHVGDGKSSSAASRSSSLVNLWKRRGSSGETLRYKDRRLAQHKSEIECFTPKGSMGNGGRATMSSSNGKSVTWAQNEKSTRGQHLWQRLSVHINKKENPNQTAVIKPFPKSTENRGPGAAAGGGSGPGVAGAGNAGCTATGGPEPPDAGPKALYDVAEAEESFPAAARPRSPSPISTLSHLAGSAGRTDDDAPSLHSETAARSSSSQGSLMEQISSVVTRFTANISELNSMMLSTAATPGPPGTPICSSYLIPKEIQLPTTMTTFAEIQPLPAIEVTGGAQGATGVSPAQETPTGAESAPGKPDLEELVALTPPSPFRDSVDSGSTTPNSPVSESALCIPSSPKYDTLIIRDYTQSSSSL
Metabotropic glutamate receptor 1 (Rattus norvegicus), sequence (P23385 19-1199 limits assumed): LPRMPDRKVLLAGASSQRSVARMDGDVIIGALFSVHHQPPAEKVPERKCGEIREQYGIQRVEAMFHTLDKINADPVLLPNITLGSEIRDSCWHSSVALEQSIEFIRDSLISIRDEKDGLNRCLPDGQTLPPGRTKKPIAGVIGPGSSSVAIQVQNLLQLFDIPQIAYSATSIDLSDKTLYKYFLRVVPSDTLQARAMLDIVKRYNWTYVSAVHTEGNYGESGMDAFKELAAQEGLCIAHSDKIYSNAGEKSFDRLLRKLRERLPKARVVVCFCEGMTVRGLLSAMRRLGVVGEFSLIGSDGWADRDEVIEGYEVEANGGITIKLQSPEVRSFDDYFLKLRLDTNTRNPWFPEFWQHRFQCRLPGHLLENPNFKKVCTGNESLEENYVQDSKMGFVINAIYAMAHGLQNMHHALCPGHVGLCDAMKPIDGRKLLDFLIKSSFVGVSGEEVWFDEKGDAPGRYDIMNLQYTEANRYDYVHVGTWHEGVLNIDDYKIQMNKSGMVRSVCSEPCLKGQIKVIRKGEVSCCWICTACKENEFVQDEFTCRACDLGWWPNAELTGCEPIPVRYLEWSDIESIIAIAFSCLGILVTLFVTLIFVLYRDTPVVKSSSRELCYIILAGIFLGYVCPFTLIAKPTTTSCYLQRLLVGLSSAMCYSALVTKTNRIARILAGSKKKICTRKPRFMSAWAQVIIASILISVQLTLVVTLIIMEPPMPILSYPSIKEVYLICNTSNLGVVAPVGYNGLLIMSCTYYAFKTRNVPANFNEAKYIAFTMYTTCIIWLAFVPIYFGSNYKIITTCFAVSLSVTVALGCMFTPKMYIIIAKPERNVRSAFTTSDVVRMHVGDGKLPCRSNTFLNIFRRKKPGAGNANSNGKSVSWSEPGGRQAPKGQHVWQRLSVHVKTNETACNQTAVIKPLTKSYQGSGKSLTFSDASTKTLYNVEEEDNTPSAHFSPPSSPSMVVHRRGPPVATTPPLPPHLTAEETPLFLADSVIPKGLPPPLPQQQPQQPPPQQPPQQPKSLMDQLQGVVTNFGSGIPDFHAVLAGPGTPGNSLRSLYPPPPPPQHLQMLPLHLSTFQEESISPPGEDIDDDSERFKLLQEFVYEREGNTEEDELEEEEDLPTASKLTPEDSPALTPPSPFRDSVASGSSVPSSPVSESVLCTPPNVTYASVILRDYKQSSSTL

Compound	IC50 [1]	further results
N#Cc1cccc(C2=Nc3cc(OCC(=O)O)c(C#Cc4ccccc4)cc3NC(=O)C2)c1	0.6 µM	
COc1cccc(C2=Nc3ccc(C#Cc4ccccc4)cc3NC(=O)C2)c1	0.962 µM	
N#Cc1cccc(C2=Nc3ccc(C#Cc4ccc(F)cc4F)cc3NC(=O)C2)c1	0.48 µM	
CC(C)O/C(=C\n1cncn1)c1ccc(Cl)cc1Cl		IC50 [2]: 6 µM
N#Cc1cccc(C2=Nc3cc(N4CCS(=O)(=O)CC4)c(C#Cc4ccccc4)cc3NC(=O)C2)c1	0.16 µM	
O=C1CC(c2cccc(C(F)(F)F)c2)=Nc2ccc(C#Cc3ccccc3)cc2N1	0.268 µM	
O=C1CC(c2cccc(Cl)c2)=Nc2ccc(C#Cc3ccccc3)cc2N1	0.08 µM	
COc1cccc(C2=Nc3ccc(C)cc3NC(=O)C2)c1	6.58 µM	
CC(C)(O)C#Cc1ccc2c(c1)NC(=O)CC(c1cccc(C#N)c1)=N2	26 µM	
Cc1ccc2c(c1)NC(=O)CC(c1cccc(C#N)c1)=N2	2.9 µM	
O=C1CC(c2cccc(C(=O)N3CCOCC3)c2)=Nc2ccc(C#Cc3ccccc3)cc2N1	0.36 µM	
N#Cc1cccc(C2=Nc3ccc(C#Cc4ccccn4)cc3NC(=O)C2)c1	0.87 µM	
N#Cc1cccc(C2=Nc3cc(N4CC[S+]([O-])CC4)c(C#Cc4ccccc4)cc3NC(=O)C2)c1	0.446 µM	
COc1cc2c(cc1C#Cc1ccccc1)NC(=O)CC(c1cccc(C#N)c1)=N2	0.092 µM	
Cc1ccc2c(c1)NC(=O)CC(c1cccc(Cl)c1)=N2	2.82 µM	
Cc1ccc2c(c1)NC(=O)CC(c1cccc(C(F)(F)F)c1)=N2	1.53 µM	
CN1CCN(c2cc3c(cc2C#Cc2ccccc2)NC(=O)CC(c2cccc(C#N)c2)=N3)CC1	0.278 µM	
COC1CCN(c2cc3c(cc2C#Cc2ccccc2)NC(=O)CC(c2cccc(C#N)c2)=N3)CC1	0.082 µM	
N#Cc1cccc(C2=Nc3ccc(C#Cc4nccs4)cc3NC(=O)C2)c1	0.3 µM	
COc1ccc(C2C(C(=O)OCCN(C)C)=C(C)N=C3SC(c4c(Cl)cccc4Cl)=CN32)cc1 (configuration not stated)		IC50 [2]: 30 µM
O=C1CC(c2cccc(I)c2)=Nc2ccc(C#Cc3ccccc3)cc2N1	0.154 µM	
N#Cc1cccc(C2=Nc3cc(N4CCOCC4)c(C#Cc4ccccc4)cc3NC(=O)C2)c1	0.378 µM	
N#Cc1cccc(C2=Nc3cc(OCC(N)=O)c(C#Cc4ccccc4)cc3NC(=O)C2)c1	2.4 µM	
CN1CCN(C(=O)c2cccc(C3=Nc4ccc(C#Cc5ccccc5)cc4NC(=O)C3)c2)CC1	1.04 µM	
C=C(C)C#Cc1ccc2c(c1)NC(=O)CC(c1cccc(C#N)c1)=N2	0.4 µM	
NC(=O)c1cccc(C2=Nc3ccc(C#Cc4ccccc4)cc3NC(=O)C2)c1	0.358 µM	

Second part, led by results:

IC50 [1]	Compound	further results
0.03 µM	N#Cc1cccc(C2=Nc3ccc(C#Cc4ccccc4F)cc3NC(=O)C2)c1	
0.026 µM	O=C1CC(c2ccccc2)=Nc2ccc(C#Cc3ccccc3)cc2N1	
0.076 µM	N#Cc1cccc(C2=Nc3ccc(C#Cc4ccccc4Cl)cc3NC(=O)C2)c1	
0.026 µM	CC(C)(C)NC(=O)COc1cc2c(cc1C#Cc1ccccc1)NC(=O)CC(c1cccc(C#N)c1)=N2	
0.04 µM	N#Cc1cccc(C2=Nc3cc(N4CCSCC4)c(C#Cc4ccccc4)cc3NC(=O)C2)c1	
0.068 µM	COc1ccc(C#Cc2ccc3c(c2)NC(=O)CC(c2cccc(C#N)c2)=N3)cc1	
0.034 µM	N#Cc1cccc(C2=Nc3ccc(C#Cc4ccccc4)cc3NC(=O)C2)c1	Activity (Homo sapiens [3]): inactive; Activity (Rattus norvegicus): inactive; Activity [4]: 25%; Activity (Homo sapiens [5]): inactive; Activity [6]: Active; Activity [7]: inactive; Activity [8]: inactive; Activity [9]: Active
0.032 µM	N#Cc1cccc(C2=Nc3ccc(C#Cc4cccs4)cc3NC(=O)C2)c1	
0.064 µM	Cc1ccc(C#Cc2ccc3c(c2)NC(=O)CC(c2cccc(C#N)c2)=N3)cc1	
0.034 µM	N#Cc1cccc(C2=Nc3ccc(C#Cc4ccc(F)cc4)cc3NC(=O)C2)c1	
0.06 µM	CN(C)c1cc2c(cc1C#Cc1ccccc1)NC(=O)CC(c1cccc(C#N)c1)=N2	
0.028 µM	COCCOc1cc2c(cc1C#Cc1ccccc1)NC(=O)CC(c1cccc(C#N)c1)=N2	
0.018 µM	N#CCOc1cc2c(cc1C#Cc1ccccc1)NC(=O)CC(c1cccc(C#N)c1)=N2	
